Test results from patent publication US20250188085A1, “COMPOSITIONS AND METHODS FOR INHIBITION OF RAS” (THERAS, INC., priority 2022, published 2025).
Like-named read-outs stand apart in the source and are kept apart here.

Experiments:
pERK in NCI-H358 cells = experiment: Cell-based pERK HTRF assay; settings: 30 min incubation, read-out: pERK in NCI-H358 cell inhibition IC50
Description: pERK assays (Perkin Elmer) were used to determine the effectiveness of compounds of the present disclosure in disrupting KRAS G12C protein/effector signaling in cells.
On Day 1, cells (NCI-H358) were seeded into 96-well plates at 4×10^4 cells/well in complete growth media (RPMI, 10% FBS).
On Day 2, cells were treated with compounds at 0.25% DMSO. The source plate was created with compounds diluted in media at 5-fold the final assay concentration. The compounds were run in a 9-point concentration curve starting at 75 μM, with a 3-fold dilution between concentrations. 20 μL was transferred onto the cell plates (final volume in wells was 100 μL). Plates were harvested after 30 min incubation by aspirating media and adding kit-supplied 1× supplemented lysis buffer to all wells (75 μl per well). Plates were then placed on a plate shaker and incubated at 850 rpm for an additional 30 min.
Antibody mixture solution was prepared by diluting aliquoted d2 and Eu Cryptate antibodies 1:20 in kit supplied detection buffer, then mixed the diluted antibodies solutions (1:1 v:v). 4 μL of this solution was then added to a 384-well detection plate (Perkin Elmer; 6008230).
Samples were homogenized by pipetting up and down and then transferred (16 μL of cell lysates) from the 96-well cell culture plate to two wells of the HTRF 384-well detection plate containing the antibody solution. Plates were centrifuged (524 g for Imin) and allowed to incubate between 4 and 24 h at room temperature. Maximum signal is reached after 4 h incubation time and remains stable over a period of 24 hours. Therefore, readings can be made between 4 and 24 h of incubation. Plates were centrifuged again (524 g for Imin) and analyzed on the En Vision plate reader using the following settings: Excitation 320 nm, Bandwidth 75 nm; Emission 615 nm, Bandwidth 85 nm; Gain 100%; Flashes 100; Lag 60 μs.

[1] = molecular target: T1, GppNHp-loaded KRAS4b (amino acids 1-169) G12C/C118S protein (Homo sapiens, UniProt P01116, C118S/G12C); experiment: Covalent cysteine 12 modification by MALDI-TOF MS, GppNHp-loaded KRAS G12C; format: binding; settings: 15 minutes reaction time point
T1 construct: KRAS4b (amino acids 1-169) G12C/C118S protein; made in house
Description: (§1) Reaction: 1 μM of GppNHp-, GTP-, or GDP-loaded KRAS4b (amino acids 1-169) G12C/C118S protein (produced in-house by Protein Expression Laboratory, FNLCR/Leidos Biomed) in 20 mM 4-(2-hydroxyethyl)-1-piperazineethanesulfonic acid (HEPES) buffer containing 150 mM NaCl, 1 mM MgCl2, pH 7.3 was prepared freshly before assay. Ten-μL aliquots of protein were dispensed onto low volume 384-well plate, then 375 nL DMSO, and 25 nL of tested compounds from 5 mM DMSO stocks were added to appropriate wells using ECHO 555 acoustic liquid handler (Labcyte Inc.). For each reaction/assay, three blanks were prepared by mixing 10 μL of protein solution with 400 nL DMSO. The contents of the wells were carefully mixed by aspiration, and then each plate was sealed with an adhesive cover, centrifuged at 2000 g for 1 minute, and kept in the dark at room temperature until 5 min, 15 min, 30 min, or 2 h collections.
(§2) Target pretreatment: Before each assay MALDI target (Bruker MPT 384 ground steel BC) was pre-treated by pipetting on each spot 0.75 μL of saturated sinapinic acid in acetonitrile (ACN).
(§3) Sample preparation: At collection time point, 2 μL of reaction mixtures were pipetted out into 20 μL MALDI matrix solution (saturated solution of sinapinic acid in 1:1 ACN:water solution containing 0.75% trifluoroacetic acid (TFA)) deposited on 384 well polypropylene plate. Resulting solution was mixed by aspiration, centrifuged at 2000 g for 1 minute, then 1 μL aliquots were dispensed on pre-treated MALDI target using Beckman Coulter Biomek FXP 96/384-Span-8 Laboratory Automation Workstation. Finally, the MALDI target was dried under mild vacuum to produce spots with fine crystalline structure.
(§4) Measurements: MALDI-TOF measurements were performed on a Bruker Daltonics rapiflex Tissuetyper TOF-TOF mass spectrometer using linear mode and mass range from 18.6 to 21.6 kDa. Detector gain was set to 3.3× (483 V), sample rate to 5 GS/s, real time smoothing to medium (175 MHz), laser smart beam pattern was set to: “MS Thin Layer M5”, and the laser frequency was 10000 Hz. Spectra were automatically collected using custom Auto Xecute method. Laser power was auto adjusted using fuzzy control. The peak selection range was set to be between 19000 and 21500 Da. Peak evaluation uses half width parameter set to be smaller than 40 Da for processed spectrograms (centroid peak detection; smoothed by SavitzkyGolay algorithm using 7 m/z width and 2 cycles; baseline was subtracted using median algorithm with flatness 1 and median level 0.01). Fuzzy control used Proteins/Oligonucleotides protocol with minimum half width 1/10 times above threshold. Up to 40000 satisfactory shots were collected in 10000 shot steps. Dynamic termination was implemented to finish data collection when peak signal/noise ratio was reaching value of 50.
(§5) Spectra processing: Spectra were smoothed by SavitzkyGolay algorithm using 7 m/z width and three cycles. Centroid peak detection algorithm was used with signal to noise threshold set to 6, relative intensity threshold 4%, peak width 10 m/z and median baseline subtraction using flatness of 1 and median level of 0.01. Peak intensity and area under the peak were evaluated and recorded for all peaks between 19,300 Da and 21,550 Da.
(§6) Calculation of percent modification: Percent modification was calculated as a ratio of peak height for protein modified by compound to sum of peak height of remaining protein plus peak height for protein modified by compound. If multiple modifications were observed each was calculated as a ratio of peak height for given modification versus sum of peak heights for all observed protein species. Data reported in Table 5 are from 15 minutes reaction time point.

[2] = molecular target: T2, Avi-KRAS G12C (1-169) GppNHp/RAF1 RBD-3×FLAG (52-151) (Homo sapiens, UniProt P01116, G12C); experiment: Raf1 RBD-KRAS G12C-GppNHp disruption (protein:protein interaction HTRF assay); format: biochemical
T2 construct: Avi-KRAS G12C (1-169) GppNHp/RAF1 RBD-3×FLAG (52-151)
Description: A protein: protein (PPI) interaction Homogeneous Time Resolved Fluorescence (HTRF) assay was used to determine the effectiveness of compounds of the present disclosure in disrupting KRAS G12C protein and effector (RAF1 or PIK3CA) binding.
The HTRF assay used the following reagents and proteins: 50 nM Avi-KRAS G12C Q25A (1-169) GppNHp/3×FLAG-PI3K CA (157-299); 50 nM Avi-KRAS G12C (1-169) GppNHp/RAF1 RBD-3×FLAG (52-151); 35 nM Avi-PI3K RBD-3×FLAG; Assay Buffer: 50 mM Tris pH 7.5, 100 mM NaCl, 5 mM MgCl2, 0.1% BSA, 0.01% Tween 20, 10% DMSO; Bead Buffer: 50 mM Tris pH 7.5, 0.01% Tween 20; Assay volume: 20 μL (384 well plate-low volume format); and Compound titration: 30-0.02 μM, 3× dilution series.
The HTRF assay employed the following protocol:
Compounds were dispensed in assay plate (384-well, Grenier Bione #784075) using Echo (model 555) with dose response settings: 200 nL final volume, titration from 100 μM as a 10-point dilution series. KRAS proteins were prepared in assay buffer, and dispensed on plates, 5 μL per well, then incubated for 1 h at room temperature, with 700 rpm shaking. RAF1 RBD and PI3K RBD CA were prepared in assay buffer, dispensed onto plates, 5 μL per well, and then incubated for 1 h at room temperature, with 700 rpm shaking. Reagent mix was then prepared and dispensed on plates, 10 μL per well, and then incubated for 1 h at room temperature, with 700 rpm shaking.
Plates were analyzed on an Envision plate reader using the following setting: Excitation 320 nm, Bandwidth 75 nm; Emission 615 nm, Bandwidth 85 nm; Gain 100%; Flashes 100; Lag 60 μs. Data was reported as percentage of activity, with DMSO as 100%. Data was plotted and analyzed using Prism 8.

[3] = molecular target: T3, GDP-loaded KRAS4b (amino acids 1-169) G12C/C118S protein (Homo sapiens, UniProt P01116, C118S/G12C); experiment: Covalent cysteine 12 modification by MALDI-TOF MS, GDP-loaded KRAS G12C; format: binding; settings: 15 minutes reaction time point
T3 construct: KRAS4b (amino acids 1-169) G12C/C118S protein; made in house
Description: as §1, §2, §3, §4, §5, §6

IC50 (pERK in NCI-H358 cells; Homo sapiens, NCI-H358, 0.5 h) [nM] | GppNHp-KRAS G12C percent of modification [1] | IC50 [2] [nM] | GDP-KRAS G12C percent of modification [3] | IC50 (pERK in NCI-H358 cells) [nM] | Structure (SMILES)
– | D (percent of modification <10%) | 500 to 5000 | C (10%≤modification <50%) | 100 to 1000 | C=CC(=O)N1CC[C@H](Oc2nc(OC[C@@]34CCCN3C[C@H](F)C4)nc3c(F)c(-c4ccc(F)c5sc(N)nc45)c(C(F)(F)F)cc23)C1 (atropisomer, axis not shown) [Compound 9]
– | D (percent of modification <10%) | 500 to 5000 | D (percent of modification <10%) | 100 to 1000 | C=CC(=O)N1CC[C@@H](Oc2nc(OC[C@@]34CCCN3C[C@H](F)C4)nc3c(F)c(-c4ccc(F)c5sc(N)nc45)c(Cl)cc23)C1 (atropisomer, axis not shown) [Compound 10]

The remaining lines, values behind:

Structure (SMILES) | IC50 (pERK in NCI-H358 cells; Homo sapiens, NCI-H358, 0.5 h) [nM] | GppNHp-KRAS G12C percent of modification [1] | IC50 [2] [nM] | GDP-KRAS G12C percent of modification [3] | IC50 (pERK in NCI-H358 cells) [nM]
C=CC(=O)N1CC[C@@H](Oc2nc(OC[C@@]34CCCN3C[C@H](F)C4)nc3c(F)c(-c4ccc(F)c5sc(N)nc45)c(Cl)cc23)C1 (atropisomer, axis not shown) [Compound 3] | ≤ 100 | A (percent of modification ≥70%) | ≤ 500 | A (percent of modification ≥70%) | –
C=CC(=O)N1CC[C@H](Oc2nc(OC[C@@]34CCCN3C[C@H](F)C4)nc3c(F)c(-c4ccc(F)c5sc(N)nc45)c(Cl)cc23)C1 (atropisomer, axis not shown) [Compound 4] | > 1000 | D (percent of modification <10%) | > 20000 | D (percent of modification <10%) | –
C=CC(=O)N1CC[C@H](Oc2nc(OC[C@@]34CCCN3C[C@H](F)C4)nc3c(F)c(-c4ccc(F)c5sc(N)nc45)c(C(F)(F)F)cc23)C1 (atropisomer, axis not shown) [Compound 5] | – | D (percent of modification <10%) | 5000 to 20000 | D (percent of modification <10%) | > 1000
C=CC(=O)N1CC[C@H](Oc2nc(OC[C@@]34CCCN3C[C@H](F)C4)nc3c(F)c(-c4ccc(F)c5sc(N)nc45)c(Cl)cc23)C1 (atropisomer, axis not shown) [Compound 8] | – | D (percent of modification <10%) | 500 to 5000 | C (10%≤modification <50%) | > 1000
